Assay results reported in patent US20090047246A1, “NOVEL INHIBITORS OF HEPATITIS C VIRUS REPLICATION” (InterMune, Inc., priority 2007, published 2009).
Like-named read-outs stand apart in the source and are kept apart here.

Molecular target: T1, HCV NS3 helicase (Hepatitis C virus genotype 1b, UniProt P26663)
T1 construct: full-length NS3 (1-631), purified at Array BioPharma
Assay: HCV Helicase Prompt FRET Assay (Example A)
Format: biochemical
Conditions: read-out: IC50 Activity
Method: Test compounds were diluted to 2.5 mM by adding 6 uL of a 10 mM solution of the compound to 18 uL of DMSO in a 384-well Costar polypropylene plate. Serial dilutions (2.5×) were performed in the plate using DMSO as the diluent. 1 ul of solution was transferred from each well to a new 384-well Costar polypropylene plate.
A 2× mixture was prepared containing 100 nM helicase substrate, 500 nM helicase capture strand (CS), and 600 μM ATP by diluting stock solutions with assay buffer consisting of 25 mM MOPS, pH 7.0, and 1.5 mM MgCl2, 0.005% (v/v) Triton X-100. Stock helicase substrate was prepared by annealing a FAM-labeled oligonucleotide to a BHQ-1 labeled oligonucleotide, which were both custom synthesized and HPLC-purified at Biosearch Technologies. The FAM-labeled and BHQ-labeled oligonucleotide had the following sequences:
The helicase capture strand was custom synthesized and purified at Integrated DNA Technologies. The helicase capture strand had the following sequence:
The ATP solution was prepared in MilliQ water, pH adjusted to approximately 7 with NaOH. ATP powder was obtained from Sigma (A-7699). The concentration was determined via A260 (ext. coeff=15,400 M^−1cm^−1).
11.5 μL of assay buffer was added to all wells of the plate containing luL of test compound. 5 μL of the Compound/assay buffer mixture was added to a black polystyrene 384-well Proxiplate. A 4× Enzyme solution was prepared by diluting enzyme stock containing full-length NS3 (1-631), purified at Array BioPharma, with assay buffer. 5 μL of the 4× Enzyme solution was added to the Proxiplate and incubated for 5 minutes (for control wells lacking enzyme, assay buffer was used instead). 10 μL of 2× substrate/CS/ATP mixture was then added to all wells of Proxiplate. The final assay conditions included 50 nM Substrate, 250 nM Capture Strand, 300 μM ATP, 5 or 6 nM Enzyme, and 2% (v/v) DMSO. The reaction proceeded for 70 cycles (˜30 min.) on an Envision at room temperature. The plate was read using the Envision (top mirror=FITC; Excitation filter=FITC 485; Emission filter=FITC 535). The fluorescence intensity was recorded for a total of 30 minutes. The initial rates of the reactions was calculated and used to calculate IC50 values. The IC50 curve fitting was performed using either a 4-parameter or 5-parameter logistic equation.

[1] = Table 36, compounds made using Scheme 54
[2] = HCV NS3 helicase, tables do not say whether Example A or Example B assay
[3] = Table 37, compounds made using Scheme 55
[4] = Table 34, compounds made using Schemes 51-52
[5] = Table 21, compounds made using Scheme 28
[6] = Table 35, compounds made using Scheme 53

T1 sequence (P26663 1027-1657): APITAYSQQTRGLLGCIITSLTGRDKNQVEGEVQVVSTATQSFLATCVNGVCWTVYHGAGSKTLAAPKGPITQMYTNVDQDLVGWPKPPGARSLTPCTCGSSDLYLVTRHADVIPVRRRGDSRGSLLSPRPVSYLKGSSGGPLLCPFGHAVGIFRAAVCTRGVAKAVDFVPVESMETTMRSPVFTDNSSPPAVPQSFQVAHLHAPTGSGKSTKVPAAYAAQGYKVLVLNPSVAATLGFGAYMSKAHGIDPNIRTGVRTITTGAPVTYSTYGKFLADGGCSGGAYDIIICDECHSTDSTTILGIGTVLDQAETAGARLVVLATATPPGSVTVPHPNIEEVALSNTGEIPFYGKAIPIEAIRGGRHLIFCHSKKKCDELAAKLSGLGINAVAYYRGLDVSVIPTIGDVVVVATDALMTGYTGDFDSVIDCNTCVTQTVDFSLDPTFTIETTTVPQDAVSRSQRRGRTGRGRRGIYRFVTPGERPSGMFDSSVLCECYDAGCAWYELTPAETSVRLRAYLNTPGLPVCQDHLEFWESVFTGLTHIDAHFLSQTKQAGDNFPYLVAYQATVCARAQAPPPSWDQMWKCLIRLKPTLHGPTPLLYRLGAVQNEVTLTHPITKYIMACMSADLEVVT

For `CCOC(=O)Cc1cn(Cc2c(-c3ccccc3)sc3ccccc23)c2cc(-c3cc([N+](=O)[O-])cc([N+](=O)[O-])c3)ccc12` [Example 711], the IC50 [1] was 10 to 50 µM.

In the case of `CCOC(=O)Cc1cn(Cc2csc3ccc(OC(F)(F)F)cc23)c2cc(-c3cc([N+](=O)[O-])cc([N+](=O)[O-])c3)ccc12` [Example 717], the IC50 [1] is reported as 10 to 50 µM.

`O=C(O)Cc1c(C(=O)c2cccc(-c3cccc(OC(F)(F)F)c3)c2)[nH]c2ccccc12` [Example 237] gave an IC50 [2] of 10 to 50 µM.

In the case of `Nc1ccnc(-c2ccc3c(CC(=O)O)cn(Cc4csc5ccc(Cl)cc45)c3c2)n1` [Example 667], the IC50 (Table 33, compounds made using Scheme 50) is reported as 10 to 50 µM.

Work on `CSc1ccc2c(c1)c(CC(N)=O)cn2Cc1cccc(OCc2ccccc2)c1` [Example 201] yielded an IC50 [2] of under 10 µM.

In the case of `Cc1cccc(-c2ccc3c(CC(=O)O)cn(Cc4csc5ccc(Cl)cc45)c3c2)c1` [Example 752], the IC50 [3] is reported as 10 to 50 µM.

`Cc1cc([N+](=O)[O-])ccc1-n1cc(C=O)c2cc(OCc3ccccc3)ncc21` [Example 327] gave an IC50 [2] of over 50 µM.

Work on `Cn1cc(CC(=O)O)c2ccc(-c3cc(N)cc(N)c3)cc21` [Example 675] yielded an IC50 [4] of over 50 µM.

`O=C(O)Cc1cn(Cc2csc3ccc(Cl)cc23)c2cc(-c3ccncc3)ccc12` [Example 764] gave an IC50 [3] of 10 to 50 µM.

`Cc1cc([N+](=O)[O-])ccc1-n1cc(C(NC(=O)C2CCCN2)C(=O)O)c2ccccc21` (stereo not drawn) [Example 672] showed an IC50 [4] of over 50 µM.

`COc1ccc(OC)c(N(C)c2ccc(Cn3cc(CC(=O)O)c4ccccc43)cc2)c1` [Example 578] showed an IC50 [5] of under 10 µM.

Work on `O=C(O)Cc1c(C(=O)c2ccc(-c3ccccc3)cc2)n(CC2CC2)c2ccccc12` [Example 218] yielded an IC50 [2] of under 10 µM.

Work on `CC(C)c1ccc(Cn2c(C(=O)NCc3ccc(OC(F)(F)F)cc3)c(CC(=O)O)c3ccccc32)cc1` [Example 454] yielded an IC50 [2] of under 10 µM.

For `CN(c1ccc(Cn2cc(CC(=O)O)c3ccccc32)cc1)c1cccc(Cl)c1Cl` [Example 572], the IC50 [5] was under 10 µM.

For `COC(=O)Cc1cn(-c2ccc([N+](=O)[O-])cc2C)c2ccc(Br)cc12` [Example 378], the IC50 [2] was over 50 µM.

Compound `CC(=O)OC1CCCN(c2ccc3ccn(Cc4csc5ccc(Cl)cc45)c3c2)C1` (stereo not drawn) [Example 695] has an IC50 [4] of 10 to 50 µM.

With `Cc1sc2cc(Cl)c(F)cc2c1Cn1cc(CC(=O)O)c2ccc(-c3cc(N)cc(N)c3)cc21` [Example 788] the IC50 [1] was under 10 µM.

With `Cc1ccc(-c2ccc(C(=O)c3[nH]c4ccccc4c3CC(=O)O)cc2)cc1Cl` [Example 267] the IC50 [2] was under 10 µM.

In the case of `COc1ccc(Oc2ccc(Cn3cc(CC(=O)O)c4ccccc43)cc2)cc1` [Example 501], the IC50 [2] is reported as under 10 µM.

`CC(C)c1ccc(Cn2c(C(=O)Nc3cccc(NS(C)(=O)=O)c3)c(CC(=O)O)c3ccccc32)cc1` [Example 462] was tested, and the IC50 [2] was under 10 µM.

In the case of `O=C(O)Cc1c(C(=O)c2ccc(-c3ccccc3Cl)cc2)[nH]c2ccccc12` [Example 254], the IC50 [2] is reported as under 10 µM.

With `CC(C)(C)ONC(=O)Cc1cn(Cc2csc3ccc(Cl)cc23)c2cc(-c3cc(N)cc(N)c3)ccc12` [Example 683] the IC50 [4] was 10 to 50 µM.

Compound `Cc1cc(-c2cccc(Cn3cc(CC(=O)O)c4cc(OCc5ccccc5)ccc43)c2)ccc1F` [Example 118] has an IC50 [2] of under 10 µM.

For `Nc1cc(N)cc(-c2ccc3c(CC(=O)NO)cn(Cc4csc5ccc(Cl)cc45)c3c2)c1` [Example 692], the IC50 [4] was 10 to 50 µM.

`O=C(O)Cc1c(C(=O)c2cccc(-c3cccc(Cl)c3Cl)c2)oc2ccccc12` [Example 241] gave an IC50 [2] of under 10 µM.

Compound `COC(OC)c1cc([N+](=O)[O-])ccc1-n1cc(CC(=O)O)c2cc(Br)ccc21` [Example 338] has an IC50 [2] of over 50 µM.

For `N#CCc1cn(Cc2csc3ccc(Cl)cc23)c2ccc(CNS(=O)(=O)c3ccccc3)cc12` [Example 209], the IC50 [2] was 10 to 50 µM.

Work on `Nc1cc(N)cc(-c2ccc3c(CC(=O)O)cn(Cc4csc5ccc(N)cc45)c3c2)c1` [Example 702] yielded an IC50 [6] of 10 to 50 µM.

`COC(=O)C(=O)c1cn(Cc2csc3ccc(Cl)cc23)c2cc(N3CCCC(OC(C)=O)C3)ccc12` (stereo not drawn) [Example 696] showed an IC50 [4] of 10 to 50 µM.

`O=C(O)Cc1cn(Cc2cccc(Oc3ccc(Cl)cc3)c2)c2ccccc12` [Example 477] was tested, and the IC50 [2] was under 10 µM.

`COC(=O)/C=C/c1cnc2c(c1)c(CC(=O)O)cn2-c1ccc(NCCC(=O)OC)cc1C` [Example 334] gave an IC50 [2] of 10 to 50 µM.

`COc1ccc(OC)c(N(C)c2cccc(Cn3cc(CC(=O)O)c4ccccc43)c2)c1` [Example 543] showed an IC50 [2] of under 10 µM.

In the case of `O=C(O)Cc1c(C(=O)c2ccccc2)n(Cc2csc3ccc(Cl)cc23)c2ccccc12` [Example 217], the IC50 [2] is reported as under 10 µM.

Work on `CC(=O)c1c(CC(=O)O)c2ccccc2n1-c1ccc(N(C)Cc2ccccc2)cc1` [Example 737] yielded an IC50 [2] of 10 to 50 µM.

For `O=C(O)Cc1cn(-c2ccc(-c3cc(Cl)cc(Cl)c3)cc2)c2ccccc12` [Example 151], the IC50 [2] was under 10 µM.

`O=C(O)Cc1c(-c2ccccc2)n(Cc2csc3ccc(Cl)cc23)c2ccccc12` [Example 414] gave an IC50 [2] of under 10 µM.

`Cc1ccc2c(Cn3cc(CC(=O)O)c4ccc(-c5cc(N)cc(N)c5)cc43)cccc2n1` [Example 704] showed an IC50 [6] of over 50 µM.

Work on `CCc1sc2ccc(Cl)cc2c1Cn1cc(CC(=O)O)c2ccc(-c3cc(N)cc(N)c3)cc21` [Example 721] yielded an IC50 [1] of under 10 µM.

In the case of `O=C(Cn1cc(Cc2nnn[nH]2)c2ccccc21)N1CCC(Cc2ccccc2)CC1` [Example 206], the IC50 [2] is reported as 10 to 50 µM.

Compound `Nc1cc(N)cc(-c2ccc3c(CC(=O)O)cn(Cc4csc5cc(Cl)c(F)cc45)c3c2)c1` [Example 723] has an IC50 [1] of under 10 µM.

In the case of `COC(=O)/C=C/c1cnc2c(c1)c(/C=C/C(=O)OC)cn2-c1ccc([N+](=O)[O-])cc1C` [Example 322], the IC50 [2] is reported as 10 to 50 µM.

`CCN(Cc1ccccc1)c1ccc(-n2cc(CC(=O)O)c3ccccc32)c(C)c1` [Example 174] gave an IC50 [2] of under 10 µM.

`Cc1cc([N+](=O)[O-])ccc1-n1cc(C(=O)C(N)=O)c2cc(Br)ccc21` [Example 384] gave an IC50 [2] of over 50 µM.

`CC(C)c1ccc(Cn2cc(CC(=O)O)c3cc(OCc4ccccc4)ccc32)cc1` [Example 114] was tested, and the IC50 [2] was 10 to 50 µM.

With `N#Cc1ccc2scc(Cn3cc(CC(=O)O)c4ccc(-c5cc(N)cc(N)c5)cc43)c2c1` [Example 703] the IC50 [6] was 10 to 50 µM.

`O=C(O)Cc1cn(Cc2ccc(Oc3cccc(Cl)c3Cl)cc2)c2ccccc12` [Example 588] was tested, and the IC50 [2] was under 10 µM.

`O=C(Cc1cn(Cc2cccc(OCc3ccccc3)c2)c2ccc(OCc3ccccc3)cc12)NS(=O)(=O)C1CC1` [Example 194] gave an IC50 [2] of under 10 µM.

`CCOC(=O)Cc1cn(Cc2ccc(Oc3cccc(OCC)c3)cc2)c2cc(-c3cccc(OC(C)=O)c3)ccc12` [Example 604] was tested, and the IC50 [2] was over 50 µM.

Work on `Cc1cc(NC(=O)Cc2ccccc2)ccc1-n1cc(CC(=O)O)c2ccccc21` [Example 156] yielded an IC50 [2] of 10 to 50 µM.

For `COc1cccc(Oc2cccc(Cn3cc(CC(=O)O)c4ccccc43)c2)c1OC` [Example 488], the IC50 [2] was under 10 µM.

With `Nc1ncc(-c2ccc3c(CC(=O)O)cn(Cc4csc5ccc(Cl)cc45)c3c2)s1` [Example 656] the IC50 (Table 32, compounds made using Schemes 46-49) was 10 to 50 µM.

Work on `CN(c1ccc(Cn2cc(CC(=O)O)c3ccccc32)cc1)c1ccccc1C(F)(F)F` [Example 565] yielded an IC50 [5] of under 10 µM.

`CN(Cc1ccccc1F)c1ccc(-n2cc(CC(=O)O)c3ccccc32)cc1` [Example 182] was tested, and the IC50 [2] was under 10 µM.

`C#Cc1cn(-c2ccc([N+](=O)[O-])cc2C)c2ncc(Br)cc12` [Example 321] showed an IC50 [2] of over 50 µM.

Work on `O=C(O)Cc1cn(Cc2cccc(-c3cncnc3)c2)c2ccc(OCc3ccccc3)cc12` [Example 119] yielded an IC50 [2] of 10 to 50 µM.

`O=C(O)Cc1c[nH]c2c(Oc3ccc([N+](=O)[O-])cc3)cccc12` [Example 355] showed an IC50 [2] of over 50 µM.

Work on `CCNc1cc(Cl)cc2c(Cn3cc(CC(=O)O)c4ccc(-c5cc(N)cc(N)c5)cc43)csc12` [Example 731] yielded an IC50 (Table 38, compounds made using Scheme 56, Scheme 57 and Scheme 61) of under 10 µM.

`CC(=O)Nc1cccc(-c2ccc(Cc3[nH]c4ccccc4c3CC(=O)O)cc2)c1` [Example 293] gave an IC50 [2] of 10 to 50 µM.

In the case of `Cn1c(C(=O)Cc2ccc(-c3ccccc3)cc2)c(CC(=O)O)c2ccccc21` [Example 250], the IC50 [2] is reported as 10 to 50 µM.

With `O=C(O)Cc1c(C(=O)c2ccc(-c3cccc(Cl)c3Cl)cc2)[nH]c2ccccc12` [Example 274] the IC50 [2] was under 10 µM.

`O=C(O)Cc1cn(-c2ccc(-c3cccc(Cl)c3)cc2)c2ccccc12` [Example 145] gave an IC50 [2] of under 10 µM.

`COC(=O)C(Cc1ccccc1)c1cn(Cc2ccc(C(C)C)cc2)c2ccc(Br)cc12` (stereo not drawn) [Example 409] was tested, and the IC50 [2] was over 50 µM.

With `O=C(O)Cc1cn(Cc2ccc(Oc3ccc(Cl)cc3)cc2)c2ccccc12` [Example 498] the IC50 [2] was under 10 µM.
